Assays:
Assay in all cases: FRET quenching titration (qPCR instrument)
Details in all cases: 150 mM KCl, 15 mM NaCl; 20 mM Tris pH 7.4, 37 °C, 1 µM DNA; duplex shifted to quadruplex, complete at 50 µM pyridostatin
[1] = test system: A:U (Tel22-T annealed to U-containing complement) (DNA, duplex, 2'-deoxyuridine at 10 of strand 2) AGGGTTAGGGTTAGGGTTAGGG/CCCTAACCCUAACCCTAACCCT
[2] = test system: A:THF (Tel22-T annealed to complement with abasic site) (DNA, mismatch bulge abasic, tetrahydrofuran (THF) abasic site at 10 of strand 2) AGGGTTAGGGTTAGGGTTAGGG/CCCTAACCCNAACCCTAACCCT
[3] = test system: A:Gap (Tel22-T annealed to two shorter complements, one-base gap) (DNA, duplex, 5'-phosphate on strand 3; one-base gap between strands 2 and 3) AGGGTTAGGGTTAGGGTTAGGG/CCCTAACCC/AACCCTAACCCT

Measured: binding

NCCOc1cc(C(=O)Nc2cc(OCCN)c3ccccc3n2)nc(C(=O)Nc2cc(OCCN)c3ccccc3n2)c1
yes: all assays above

Reference: PMC9920732 (2023)
